Source: ChEMBL document CHEMBL6103537 (J Med Chem, 2025)
The source made the active and inactive calls. The rule behind the calls is not given here.

Legend:
[1] = target: T1, Protein cereblon/Signal transducer and activator of transcription 5A/Signal transducer and activator of transcription 5B (Homo sapiens) (UniProt P42229+P51692+Q96SW2); test: PROTAC activity at STAT5 at residue Y694/CRBN in human MV4-11 cells assessed as reduction in STAT5 level at upto 10 uM incubated for 12 hrs by Western blot analysis; assay type: cell-based
[2] = target: T2, Protein cereblon/Signal transducer and activator of transcription 2 (Homo sapiens) (UniProt Q96SW2+P52630); test: PROTAC activity at STAT2/CRBN in human MV4-11 cells assessed as reduction in STAT2 level at 2 uM incubated for 12 hrs by Western blot analysis relative to control; assay type: cell-based
[3] = target: T3, Protein cereblon/Signal transducer and activator of transcription 6 (Homo sapiens, UniProt P42226+Q96SW2); test: PROTAC activity at STAT6/CRBN in human PBMC cells assessed as reduction in STAT6 level incubated for 18 hrs by Western blot analysis; assay type: cell-based
[4] = target: T1, Protein cereblon/Signal transducer and activator of transcription 5A/Signal transducer and activator of transcription 5B (Homo sapiens); test: PROTAC activity at STAT5/CRBN in human PBMC cells assessed as reduction in STAT5 level at 10 uM incubated for 18 hrs by Western blot analysis relative to control; assay type: cell-based
[5] = target: T4, Protein cereblon/Signal transducer and activator of transcription 3 (Homo sapiens) (UniProt P40763+Q96SW2); test: PROTAC activity at STAT3/CRBN in human PBMC cells assessed as reduction in STAT3 level at 10 uM incubated for 18 hrs by Western blot analysis relative to control; assay type: cell-based
[6] = target: Protein cereblon/Signal transducer and activator of transcription 4 (Homo sapiens) (UniProt Q96SW2+Q14765); test: PROTAC activity at STAT4/CRBN in human PBMC cells assessed as reduction in STAT4 level at 10 uM incubated for 18 hrs by Western blot analysis relative to control; assay type: cell-based
[7] = target: T3, Protein cereblon/Signal transducer and activator of transcription 6; test: PROTAC activity at STAT6/CRBN in human L-1236 cells assessed as reduction in STAT6 level incubated for 24 hrs by Western blot analysis; assay type: cell-based; conditions: dose 10.0 µM
[8] = target: T1, Protein cereblon/Signal transducer and activator of transcription 5A/Signal transducer and activator of transcription 5B (Homo sapiens); test: PROTAC activity at STAT5/CRBN in human L-1236 cells assessed as reduction in STAT5 level at 10 uM incubated for 24 hrs by Western blot analysis; assay type: cell-based
[9] = target: T2, Protein cereblon/Signal transducer and activator of transcription 2 (Homo sapiens); test: PROTAC activity at STAT2/CRBN in human L-1236 cells assessed as reduction in STAT2 level at 10 uM incubated for 24 hrs by Western blot analysis; assay type: cell-based
[10] = target: T4, Protein cereblon/Signal transducer and activator of transcription 3 (Homo sapiens); test: PROTAC activity at STAT3/CRBN in human L-1236 cells assessed as reduction in STAT3 level at 10 uM incubated for 24 hrs by Western blot analysis; assay type: cell-based
PBMC [11] = test: Downregulation of STAT2 level in human PBMC cells at 5 uM incubated for 18 hrs by Western blot analysis relative to control; assay type: functional, cell-based
PBMC [12] = test: Downregulation of STAT3 level in human PBMC cells at 5 uM incubated for 18 hrs by Western blot analysis relative to control; assay type: functional, cell-based
[13] = target: T3, Protein cereblon/Signal transducer and activator of transcription 6; test: PROTAC activity at STAT6/CRBN in human MV4-11 cells assessed as reduction in STAT6 level at 2 uM measured upto 1200 mins in presence of AK-068 by HiBiT bioluminescence assay; assay type: cell-based
[14] = target: Cereblon/Ikaros (Homo sapiens) (UniProt Q96SW2+Q13422); test: PROTAC activity at CRBN/IKZF1 in human Jurkat cells assessed as degradation of IKZF1 protein at 0.01 to 10 uM incubated for 20 hrs by Western blotting analysis; assay type: cell-based; conditions: dose 0.01-10 µM
[15] = target: Protein cereblon/Zinc finger protein Helios (Homo sapiens) (UniProt Q96SW2+Q9UKS7); test: PROTAC activity at CRBN/IKZF2 in human Jurkat cells assessed as degradation of IKZF2 protein at 0.01 to 10 uM incubated for 20 hrs by Western blotting analysis; assay type: cell-based; conditions: dose 0.01-10 µM
[16] = Metabolic stability in human liver microsome assessed as parent compound remaining measured at 45 mins in presence of NADPH by LC-MS/MS analysis; assay type: ADME; conditions: liver microsomes, read-out: Stability
[17] = Metabolic stability in dog liver microsome assessed as parent compound remaining measured at 5 mins in presence of NADPH by LC-MS/MS analysis; assay type: ADME, Canis lupus familiaris; conditions: liver microsomes, read-out: Stability
[18] = Metabolic stability in dog liver microsome assessed as parent compound remaining measured at 15 mins in presence of NADPH by LC-MS/MS analysis; assay type: ADME, Canis lupus familiaris; conditions: liver microsomes, read-out: Stability
[19] = Metabolic stability in monkey liver microsome assessed as parent compound remaining measured at 30 mins in presence of NADPH by LC-MS/MS analysis; assay type: ADME, Macaca mulatta; conditions: rhesus monkey, liver microsomes, read-out: Stability
[20] = Metabolic stability in rat liver microsome assessed as parent compound remaining measured at 5 mins in presence of NADPH by LC-MS/MS analysis; assay type: ADME; conditions: liver microsomes, read-out: Stability
[21] = Metabolic stability in rat liver microsome assessed as parent compound remaining measured at 30 mins in presence of NADPH by LC-MS/MS analysis; assay type: ADME; conditions: liver microsomes, read-out: Stability
[22] = Stability in human plasma assessed as parent compound remaining measured at 30 mins by LC-MS/MS analysis; assay type: ADME, cell-free; conditions: read-out: Stability
[23] = Stability in human plasma assessed as parent compound remaining measured at 60 mins by LC-MS/MS analysis; assay type: ADME, cell-free; conditions: read-out: Stability
[24] = Stability in monkey plasma assessed as parent compound remaining measured at 30 mins by LC-MS/MS analysis; assay type: ADME, cell-free, Macaca mulatta; conditions: rhesus monkey, read-out: Stability
[25] = Stability in monkey plasma assessed as parent compound remaining measured at 60 mins by LC-MS/MS analysis; assay type: ADME, cell-free, Macaca mulatta; conditions: rhesus monkey, read-out: Stability
[26] = Stability in monkey plasma assessed as parent compound remaining measured at 120 mins by LC-MS/MS analysis; assay type: ADME, cell-free, Macaca mulatta; conditions: rhesus monkey, read-out: Stability
[27] = Stability in rat plasma assessed as parent compound remaining measured at 5 mins by LC-MS/MS analysis; assay type: ADME, cell-free; conditions: read-out: Stability
[28] = Stability in rat plasma assessed as parent compound remaining measured at 60 mins by LC-MS/MS analysis; assay type: ADME, cell-free; conditions: read-out: Stability
[29] = Stability in mouse plasma assessed as parent compound remaining measured at 30 mins by LC-MS/MS analysis; assay type: ADME, cell-free; conditions: read-out: Stability
[30] = Stability in mouse plasma assessed as parent compound remaining measured at 60 mins by LC-MS/MS analysis; assay type: ADME, cell-free; conditions: read-out: Stability
[31] = Stability in human plasma assessed as half life measured upto 60 mins by LC-MS/MS analysis; assay type: ADME, cell-free
[32] = Stability in monkey plasma assessed as half life measured upto 60 mins by LC-MS/MS analysis; assay type: ADME, cell-free, Macaca mulatta; conditions: rhesus monkey
[33] = Stability in mouse plasma assessed as half life measured upto 60 mins by LC-MS/MS analysis; assay type: ADME, cell-free
[34] = target: T5, Protein cereblon/Signal transducer and transcription activator 6 (Mus musculus) (UniProt P52633+Q8C7D2); test: In vivo PROTAC activity at STAT6/CRBN in BALB/c mouse assessed as reduction in STAT6 level in lung at 200 mg/kg, ip measured at 2 hrs by Western blot analysis; assay type: functional, organism-based; parameters: scale not given: the % may be the effect or the level left
[35] = target: T5, Protein cereblon/Signal transducer and transcription activator 6 (Mus musculus); test: In vivo PROTAC activity at STAT6/CRBN in BALB/c mouse assessed as reduction in STAT6 level in lung at 200 mg/kg, ip measured at 6 hrs by Western blot analysis; assay type: functional, organism-based; parameters: scale not given: the % may be the effect or the level left

With `CC(C)(C)[C@H](NC(=O)c1cc2cc(C(F)(F)P(=O)(O)O)ccc2s1)C(=O)N1C[C@@H](OCCCCCC#Cc2cccc3c2CN(C2CCC(=O)NC2=O)C3=O)C[C@H]1C(=O)N1CCO[C@H](c2ccccc2)C1` (stereo not given in full) the Activity [1] was “No effect”, the Emax [2] was < 40% and the DC50 [3] was 80 nM. For the same compound, the Activity [4] was “No effect”, the Activity [5] was “No effect” and the Activity [6] was “No effect”. For the same compound, the Activity [7] was “Dose-dependent-effect”, the Activity [8] was “No effect” and the Activity [9] was “No effect”. The Activity [10] was “No effect”, the Activity (PBMC [11]) was “inactive” and the Activity (PBMC [12]) was “inactive”. The Activity [13] was “Active”, the Activity [14] was “Active” and the Activity [15] was “No effect”. The remaining at 0.75 h [16] was 91%, the remaining at 5 min [17] was 97% and the remaining at 0.25 h [18] was 97%. It also gave a remaining at 0.5 h [19] of 70%, a remaining at 5 min [20] of 99% and a remaining at 0.5 h [21] of 96%. The remaining at 0.5 h [22] was 82%, the remaining at 1 h [23] was 94% and the remaining at 0.5 h [24] was 91%. For the same compound, the remaining at 1 h [25] was 81%, the remaining at 2 h [26] was 82% and the remaining at 5 min [27] was 86%. For the same compound, the remaining at 1 h [28] was 91%, the remaining at 0.5 h [29] was 96% and the remaining at 1 h [30] was 91%. For the same compound, the half-life [31] was > 2 h, the half-life [32] was > 2 h and the half-life [33] was > 2 h. For the same compound, the Activity [34] was > 70% and the Activity [35] was > 90%.
